Test results published in patent US7288556B2, “Antiproliferative 1,2,3-thiadiazole compounds” (QLT Inc., priority 2000, dated 2007).
Marks after values point to notes of the source that are not given here.

How the values were obtained:
[1] = system: chick chorioallantoic membrane; test: Chick chorioallantoic membrane (CAM) developmental angiogenesis assay; format: in vivo, chicken
Procedure: e. Chick chorioallantoic membrane assay (CAM assay): was performed on fertilized chicken eggs and used as a test for angiogenesis inhibition.
Approximately 4 dozen fertilized eggs were sprayed with 70% ETOH and placed in a 180 egg incubator (GQF Sportsman incubator). The eggs were incubated “rounded-side down” and were fully rotated along the vertical axis every 30 minutes at 37° C. under 90% relative humidity.
After 4 days, the eggs were placed upside down (round side up) for 5-10 minutes, before a round hole approximately 3 centimeters in diameter was created above the pointed end or “air hole” of the egg using sterile blunt-ended forceps (“deshelling”). The inner membrane was also removed, and the embryo was visible through this opening. A small portion of the outer membrane was then carefully removed using fine-tipped forceps in order to expose the CAM. Sterile Parafilm was placed over the de-shelled opening to create an airtight seal. The eggs were returned to the incubator (with no rotation) for 2 days.
Viable eggs were then treated with control and inhibitor compounds. Gelfoam™ gelatin sterile sponge (Upjohn) or 1-2 mm discs of methylcellulose saturated with physiological saline, buffer or an appropriate dilution of the compounds under investigation. The Gelfoam™ fragments of methylcellulose discs were added directly to the surface of the developing CAM. Care was taken not to add the treatment directly over a large vessel. The shells were marked in 3 places to aid in stereotactic localization of the treatment sponge or disc. An average of 6 eggs were included for each experimental condition. The treated eggs were returned to the incubator for 2 days.
The eggs were then assessed for blood vessel growth inhibition. Photomicrographs for records and visual examination were made using a Nikon dissecting microscope with an attached Nikon 35-mm camera body.

IEC-18-13 Epithelium = test: Matrigel invasion assay, IEC-18-13; format: cell-based; conditions: 10 μm, 24 h, control 34.9
Procedure: (§1) c. Invasion Assays: Invasion of cells into surrounding tissue is a hallmark property of tissue remodeling. Tissue remodeling occurs during most pathological progression, including tumor progression, angiogenesis and during normal processes such as wound healing. The following invasion assays were performed using Biocoat® Cell Environments™ Matrigel Invasion Chamber 24-Well Plate Size (Becton Dickinson). The invasion chambers can be used to assess the ability of a cell to traverse an extracellular matrix under a variety of conditions. The chambers consist of a 24 well plate and […] that can be suspended in each well and act as an upper chamber. Cells place in the upper chamber insert must invade through a matrix in order to enter the lower chamber.
(§2) Cells were pre-labeled with ^3H-thymidine overnight. Typically, 5×10^5 cells were cultured overnight in 5 mls of serum-containing media spiked with 200 μl of thymidine stock solution. Cells were scraped off of the flask substratum and gently pipetted up and down to achieve single cell suspension in the medium. […]
(§3) After an incubation period of 24 h, media was carefully removed from the upper chamber insert and saved for scintillation counting. […] The relative amount of cell invasion was calculated by adding counts from the filters and lower chambers and dividing this sum by the total counts added initially to the upper chambers. […]

HUVEC [2] = test: HUVEC endothelial proliferation in response to test compounds (MTS); format: cell-based
Procedure: (§4) Endothelial cell cultures: Cell lines used include HUVEC, EJG and MS1 and are routinely passaged 1 to 2 times weekly. Endothelial growth media (EGM) consists of Endothelial Base Media plus all supplements (Clonetics). For testing of compounds, endothelial cells were plated on 1% gelatin-coated plates. Prior to plating, gelatin solution was added to the plates for at least 10 minutes before plating, but excess solution removed immediately before adding cells. Sterile gelatin solution consists of 1% gelatin in dH2O that has been autoclaved. Endothelial cells form a characteristic cobblestone monolayer upon confluency. Typically, a T-75 plate contains 1 million microvascular cells upon confluency.
a. HUVEC Endothelial Proliferation in Response to Test compounds: HUVEC were cultured in 96-well plates and treated with a dilution series of test compounds for potential angiogenesis-related effects.
Day 0—Endothelium are plated at 5000 cells/well and at 10,000 cells/well.
Day1—Treatments are added in EGM culture medium in an appropriate dilution series (n=6 or 12). Controls included EGM alone, serum free medium (SFM), and EGM plus 0.5% DMSO.
Day 1-2, MTS/PMS solutions were added and plates read at 4 and 24 h after treatment.

IEC-18 Epithelium = test: Matrigel invasion assay, IEC-18; format: cell-based; conditions: 10 μm, 24 h, control 16.8
Procedure: as §1, §2, §3

Lewis Lung cell line = conditions: cells inoculated subcutaneously in rear flank of mice, compound i.p. daily
Procedure: Anti-tumour efficacy and dose response in allograft and xenograft models. Cell lines were selected from an in vitro assay based on ILK expression, and growth curves characterized in vivo. Preliminary tests were performed with the Lewis Lung cell line in a murine allograft tumor model. In parallel, human xenograft tumor lines were characterized.
Cells were inoculated subcutaneously in the rear flank of mice, and the test compound was administered i.p. daily. Tumors were measured and the size calculated, with the objective being a decrease in tumor growth compared to the controls.

HUVEC [3] = test: 3H-Thymidine incorporation proliferation assay; format: cell-based; conditions: 10 μm
Procedure: as §4
b. Thymidine incorporation proliferation assay: Cells were plated out and grown overnight. The next day the test compound or controls were added to the plates, along with diluted ^3H-thymidine added to a final concentration of 0.1 μCi/well, and the plates were incubated. After 24 h, the plates were spun down 1000 g for 10 min (for non-adherent cells) before removing the PBS. A volume of 120 μl of the scintillant fluid was added to each of the wells, and the plate was read.

[4] = HUVEC in log phase growth, 5 μm
[5] = HUVEC in log phase growth, 10 μm
[6] = HUVEC in log phase growth, 20 μm

## NC(=O)c1nnsc1Nc1ccccc1 [KP-15807, 5-Phenylamino-[1,2,3]thiadiazole-4-carboxylicacid amide]
[1]; 5 μm
  % Inhibition: 60%
[1]; 10 μm
  % Inhibition: 75%
[1]; 20 μm
  % Inhibition: 85%
IEC-18-13 Epithelium
  % Cell Invasion: 8%
HUVEC [2]; [4]
  MTS Relative Absorbance 4 h: 1.26 +/− 0.17
  MTS Relative Absorbance 24 h: 1.22 +/− 0.09
HUVEC [2]; [5]
  MTS Relative Absorbance 4 h: 1.31 +/− 0.09
  MTS Relative Absorbance 24 h: 1.24 +/− 0.04
HUVEC [2]; [6]
  MTS Relative Absorbance 4 h: 1.25 +/− 0.03
  MTS Relative Absorbance 24 h: 1.21 +/− 0.05
HUVEC [2]; HUVEC post-confluent, 5 μm
  MTS Relative Absorbance 4 h: 2.06 +/− 0.20
  MTS Relative Absorbance 24 h: 1.55 +/− 0.17
HUVEC [2]; HUVEC post-confluent, 10 μm
  MTS Relative Absorbance 4 h: 2.30 +/− 0.05
  MTS Relative Absorbance 24 h: 1.62 +/− 0.12
HUVEC [2]; HUVEC post-confluent, 20 μm
  MTS Relative Absorbance 4 h: 2.52 +/− 0.05
  MTS Relative Absorbance 24 h: 1.71 +/− 0.02
IEC-18 Epithelium
  % Cell Invasion: 9%
Lewis Lung cell line
  tumor growth compared to control: succeeded in reducing tumor growth compared to control
other
  melting point: 195 to 197 °C
HUVEC [3]; HUVEC in log phase growth
  3H-Thymidine incorporation at 24 h: 746 +/− 200
  3H-Thymidine incorporation at 48 h: 1251 +/− 117
HUVEC [3]; HUVEC post-confluent
  3H-Thymidine incorporation at 24 h: 571 +/− 86
  3H-Thymidine incorporation at 48 h: 452 +/− 71*
